Source: paper PMC10763578 (Cell host & microbe, 2023)

Biological target: CgaA (cytosolic glutathione amidotransferase A; FTN_0435) (Francisella tularensis, UniProt A0Q523)
Conditions: 10 mM substrate, 1 uM enzyme, 60 min, 300 mM NaCl, 50 mM Tris-Cl pH 8.5, 37 °C

CgaA (cytosolic glutathione amidotransferase A; FTN_0435), sequence (A0Q523 1-235): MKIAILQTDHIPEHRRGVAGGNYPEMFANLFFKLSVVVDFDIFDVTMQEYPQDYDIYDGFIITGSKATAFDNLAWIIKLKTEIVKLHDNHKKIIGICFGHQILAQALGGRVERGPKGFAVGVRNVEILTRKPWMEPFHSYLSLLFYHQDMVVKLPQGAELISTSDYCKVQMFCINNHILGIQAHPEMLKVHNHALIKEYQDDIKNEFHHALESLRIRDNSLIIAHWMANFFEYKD

NC(=O)CC[C@H](N)C(=O)O [Gln, glutamine]
glutamate release, coupled colorimetric kit (A450): we detected only a low level of glutamate accumulation following incubation of CgaA with glutamine
